According to US8791159B2, “Compound capable of binding S1P receptor and pharmaceutical use thereof” (Ono Pharmaceutical Co., Ltd., priority 2003, dated 2014):
Blank lines part the entries; values can stand above or below the molecule they belong to.

Assays:
EDG-6 = biological target: T1, EDG-6 (Homo sapiens, UniProt O95977); assay: Inhibitory activity on binding of [3H]-S1P to EDG-6 (EDG-6-overexpressing cells); conditions: competitive binding test, 5 nM D-erythro-sphingosine-3-[3H]-1-phosphate, 60 minutes on ice
T1 construct: expressed in transfected cells; host or cells: EDG-6-overexpressing cells
T1 sequence (O95977 1-384): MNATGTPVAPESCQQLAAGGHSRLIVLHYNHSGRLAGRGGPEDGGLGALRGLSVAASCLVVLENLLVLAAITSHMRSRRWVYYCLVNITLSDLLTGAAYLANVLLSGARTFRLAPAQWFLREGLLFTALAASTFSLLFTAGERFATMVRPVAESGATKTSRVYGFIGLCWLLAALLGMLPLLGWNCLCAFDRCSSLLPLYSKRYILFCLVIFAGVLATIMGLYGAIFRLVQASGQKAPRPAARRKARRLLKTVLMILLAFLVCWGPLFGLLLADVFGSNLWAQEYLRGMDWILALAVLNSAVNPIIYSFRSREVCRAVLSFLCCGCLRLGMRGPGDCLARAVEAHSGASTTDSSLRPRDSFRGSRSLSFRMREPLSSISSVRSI
Experimental: Firstly, EDG-6-overexpressing cells were seeded at a density of 2×10^5 cells/well into a 12-well plate. After 12 hours, the cells were washed with 0.5 mL of an assay buffer twice. In a saturation binding test for determining the KD value and the Bmax value, the cells were incubated in 0.4 mL of an assay buffer containing D-erythro-sphingosine-3-[^3H]-1-phosphate at various concentrations and 2 μL of 0.01 N NaOH for 60 minutes on ice. Then, the wells were washed with 0.8 mL of the assay buffer twice and the whole cells were disrupted by adding 0.1 mL of 0.5% TCA (trichloroacetic acid), 0.4 mL of a lysis buffer (2% Na2CO3, 4% NaOH, 0.1% SDS) and 0.1 mL of 1 N hydrochloric acid. Then, 0.5 mL of the lysed solution was collected in a glass vial (Packard) with a pipette. After adding 7 mL of ACSII (Amersham), the mixture was thoroughly stirred and the radioactivity was measured with a liquid scintillation counter (TRI-CARB 2900TR Packard), thereby determining the KD value. The value of the nonspecific binding was determined by adding unlabeled S1P at a final concentration of 25 μM as a substitute for 0.01 N NaOH. […] The subsequent procedures following washing were carried out as in the saturation binding test and the radioactivity was measured as described above.

Human EDG-1 = Human EDG-1 (Homo sapiens, UniProt P21453); assay: Agonistic activity against EDG by monitoring intracellular calcium ion concentration [Ca2+]i; format: cell-based; conditions: human EDG-1 overexpressing CHO cells, increase ratio of [Ca2+]i
Experimental: Human EDG-1, EDG-3, EDG-5 or EDG-8 gene overexpressing Chinese Hamster Ovary (CHO) cells were cultured in Ham's F12 medium (manufactured by GIBCO BRL) containing 10% FBS (fetal bovine serum), penicillin/streptomycin and blasticidin (5 μg/ml). The cultured cells were incubated in a 5 μM Fura2-AM solution (Ham's F12 medium containing 10% of FBS, 20 mM HEPES buffer (pH7.4) and 2.5 mM probenecid) at 37° C. for 60 minutes. After washing once with Hanks solution containing […] buffer (pH7.4) and 2.5 mM probenecid, the plate was soaked in the same solution until assay. Then, the plate was set on a fluorescent drug screening system (FDSS 6000; Hamamatsu Photonics) and the intracellular calcium ion concentration was measured without stimulation for 30 seconds. A test compound (final concentration: 1 nM to 10 μM, dimethylsulfoxide (DMSO) solution) was added and S1P (final concentration: 100 nM) was added 5 minutes thereafter. Then, the increase in the intracellular calcium ion concentration was measured before and after the addition of S1P at intervals of 3 seconds (excitation wavelength: 340 nm and 380 nm, fluorescence wavelength: 500 nm). […]

lymphocyte in blood = assay: Counting the number of lymphocyte in blood (1); format: in vivo, male Sprague-Dawley rats; conditions: oral, 10, 30 and 100 mg/kg, 4 hours after the administration, rat
Experimental: Test compounds were orally administered to male Sprague-Dawley rats (Charles Riber Laboratories, Japan, Ltd., 6-week-old at using). Four to 72 hours after the administration, the blood was collected from the aorta abdominalis under ether anesthesia. Using a portion of the thus collected blood, the number of blood cells were counted and the number of lymphocyte, neutrophil and platelet were counted. Each group had 4 or 5 animals.

[1] = after administration; cited from earlier work
[2] = cited from earlier work
S1P receptor = conditions: cited from earlier work

Human EDG-1, sequence (P21453 whole entry): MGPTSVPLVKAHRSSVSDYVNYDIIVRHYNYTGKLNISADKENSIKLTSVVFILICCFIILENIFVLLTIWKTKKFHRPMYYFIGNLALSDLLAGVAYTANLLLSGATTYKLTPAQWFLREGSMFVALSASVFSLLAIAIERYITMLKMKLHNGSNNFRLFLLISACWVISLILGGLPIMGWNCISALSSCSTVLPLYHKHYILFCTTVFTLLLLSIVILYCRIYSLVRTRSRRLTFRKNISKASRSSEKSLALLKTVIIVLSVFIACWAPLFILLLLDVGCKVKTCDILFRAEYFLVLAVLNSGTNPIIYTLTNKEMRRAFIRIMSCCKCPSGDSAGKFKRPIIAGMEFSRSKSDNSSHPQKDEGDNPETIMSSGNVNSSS

Structure (SMILES): O=C(O)CCNCCCc1ccc(OCCCCCc2ccccc2)cc1 [3-[3-(4-(5-phenylpentyloxy)phenyl)propylamino]propanoic acid]
- Ki (EDG-6): 0.352 µM
- EC50 (Human EDG-1): 0.255 µM
- number of lymphocyte in blood (lymphocyte in blood): concentration-dependently lowered the number of lymphocyte in blood

Structure (SMILES): CCCCCCCCc1ccc(CCC(N)(CO)CO)cc1.Cl [FTY720, 2-amino-2-[2-(4-octylphenyl)ethyl]-1,3-propanediol hydrochloride]
- side effect (bradycardia) [1]: causing bradycardia after administration
- incidence rate of acute rejection ([2]; human kidney transplantation): significantly lowering the incidence rate of acute rejection
- lymphocyte count in the peripheral blood ([2]; human, in vivo): reducing the lymphocyte count in the peripheral blood

Structure (SMILES): CCCCCCCCc1ccc(CCC(N)(CO)COP(=O)(O)O)cc1 (stereo not shown) [phosphorylated FTY720]
- binding to S1P receptor subtypes (S1P receptor): binds to multiple subtypes of the S1P receptors, i.e., EDG-1, EDG-3, EDG-6 and EDG-8

Results, then the molecule that gave them:

- melting point: 162.5 to 163.3 °C
Structure (SMILES): CC1=C(CNCCC(=O)O)CCc2cc(OCCCCc3ccccc3)ccc21.Cl

- melting point: 77 to 83 °C
Structure (SMILES): CC1=C(CN2CC(C(=O)O)C2)CCc2cc(OCCC(c3ccccc3)c3ccccc3)ccc21.Cl

- melting point: 124 to 127 °C
Structure (SMILES): CC1=C(CN2CC(C(=O)O)C2)CCc2cc(OCC(C)(C)Cc3ccccc3)ccc21.Cl
